Measured values published in patent US6545006B1, “Process for obtaining L-dihydroorotic acid and use thereof” (Aventis Pharma Deutschland GmbH, priority 1997, dated 2003).

Tests used:
[1] = A77 1726 concentrations in serum from rats treated with leflunomide; format: in vivo, rat; details: for A77 1726 concentrations in serum, Mean: leflunomide 10 mg/kg p.o. twice daily; for A77 1726 serum concentration: 3 hours after oral drug administration
Protocol: Animals: Male Wistar-Lewis rats (Mollegaard Breading Center Ltd. Ejby, DK) with a body weight of 160-200 g.
Adjuvant Arthritis: The disease was induced by injecting 0.1 ml Freund's adjuvant (6 mg Mycobacterium smegmatis suspended in 1 ml heavy, white paraffin oil (Merck, Darmstadt) into the root of Wistar-Lewis rat's tails. Pathological symptoms generally appear between 10 and 14 days after disease induction.
Drug Treatment: Drugs were suspended in 1% carboxymethylcellulose (COMC). […] (see table 12). At time point 0 h, 3 animals from both diseased and non-diseased groups were sacrificed to determine base-line levels. An additional 3 healthy and 3 diseased animals were treated with placebo (COMC alone) for 5 days.
Sampling: Three animals per group were sacrificed at each sampling time point. Serum and splenocytes taken at 3 h, 7 h, 27 h, 51 h, 75 h, and 99 h (see table 12). With the exception of the 7 h value, samples were taken three hours after the last drug application. The 7 h value was taken one hour after the second dosing. Samples from the placebo treated animals were taken at the 0 h (n=3) and 99 h (n=3) time points
Blood collected by heart puncture was stored for 30 min at 4° C. and then centrifuged for 10 min at 3000 rpm. Serum was separated and stored in Eppendorf-caps at −20° C. (3). Before HPLC analysis, the frozen serum was thawed and, in order to remove the proteins, 200 μl serum were added to a Microcon filter (model 10,code 42407, Amicon) and centrifuged for 30 min at 13 000 rpm.
The tubes were then mixed in a Vortex mixer and centrifuged at 2500 rpm (room temperature) for 10 minutes. For HPLC analysis, the supernatant (400 μl) was transferred to a vial and water (400 μl) added and mixed. The HPLC conditions were as follows: The hardware consisted of a TSP P2000 pump, a TSP AS1000 auto-sampler, a TSP SP4270 integrator, and a TSP UV100 UV-detector. Detection was at 292 nm wavelength. The mobile phase consisted of 650 ml methanol (CHROMASOLV), 2,42 g tetrabutylammoniumbromide, and 350 ml 0,05 M Ammoniumacetate. The flow rate was 0.5 ml/min A CHROMPACK Spherisorb ODS-2 10 cm column with a 1 cm reversed phase (R2) guard column was used. 100 μl was injected into the column and the running time was 7 min.

DHO-DH = molecular target: T1, DHO-DH (Mus musculus, UniProt O35435); test: Intracellular DHO-concentrations in A20.2.J cells incubated with A77 1726; format: cell-based; details: for DHO-Concentration (μg/ml ± SD) Experiment 1 (E10 B) / DHO-Concentration (μg/ml ± SD) Experiment 2 (E14): 5 μM A77 1726, 24 hours, n=3
T1 construct: endogenous in cells; host or cells: A20.2.J cells
T1 sequence (O35435 whole entry): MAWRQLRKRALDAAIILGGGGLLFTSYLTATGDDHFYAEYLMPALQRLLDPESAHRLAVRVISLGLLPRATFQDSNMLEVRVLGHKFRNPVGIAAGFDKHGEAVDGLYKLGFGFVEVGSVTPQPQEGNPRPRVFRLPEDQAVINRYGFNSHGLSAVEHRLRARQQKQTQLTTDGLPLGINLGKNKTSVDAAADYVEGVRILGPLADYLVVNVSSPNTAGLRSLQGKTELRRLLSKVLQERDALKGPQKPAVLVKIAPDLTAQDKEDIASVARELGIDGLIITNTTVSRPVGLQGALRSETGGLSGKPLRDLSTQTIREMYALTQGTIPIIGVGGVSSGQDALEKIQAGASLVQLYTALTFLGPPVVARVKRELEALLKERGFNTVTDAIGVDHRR
Protocol: Cell Culture: A20.2.J cells were cultured in serum free medium (37° C., 5% CO2) in an expansion culture at logarithmic cell growth. […] The percentage of dead cells were <8% (3).
Prepared cells were resuspended in a defined medium volume and cell density. Depending on expected DHO content, between 1-50 million cells were removed, pelleted (5 min, 350×g) and supernatant discarded. Cell were lysed, by adding 500 μl 1.2 M HCIO4. The lysates were transferred into 2 ml Eppendorf safe-lock-caps, and the protein precipitated by 2 min high speed centrifugation. The acidified lysates were completely removed, transferred into glass vials and, after addition of 500 μl chloroform, thoroughly mixed by 2 min vortexing. Cellular lipids were extracted following 10 min cold centrifugation (1502×g; 10° C.). The purified supernatants were collected in 2 ml Eppendorf caps for storage at −20° C. until high pressure liquid chromatography (HPLC) determination.
The chromatographic separation was performed as described in example 1.The range of the conductive detector was set to 10 μS. The analysis was performed at room temperature. The mobile phase was composed of 100 mM NaOH (A) and water (B). With that system the following gradient was produced:
(* all values extrapolated to 10×10^6 cells) (n=2).
The data are given as μg/ml DHO±SD extrapolated to ten million cells (0-4 h=n=2, 7 h=n=4).

With CC(O)=C(C#N)C(=O)Nc1ccc(C(F)(F)F)cc1 [A77 1726, N-(4-trifluoromethyl)-2-cyano-3-hydroxy-crotonamide] the “A77 1726 concentrations in serum, Mean” value ([1]; Adjuvant Diseased Rats, 3 h) was 26.33 µg/mL, the “A77 1726 concentrations in serum, Mean” value ([1]; Adjuvant Diseased Rats, 7 h) was 42.3 µg/mL and the “A77 1726 concentrations in serum, Mean” value ([1]; Adjuvant Diseased Rats, 27 h) was 19.7 µg/mL. For the same molecule, the “A77 1726 concentrations in serum, Mean” value ([1]; Adjuvant Diseased Rats, 51 h) was 9.2 µg/mL, the “A77 1726 concentrations in serum, Mean” value ([1]; Adjuvant Diseased Rats, 75 h) was 9.9 µg/mL and the “A77 1726 concentrations in serum, Mean” value ([1]; Adjuvant Diseased Rats, 99 h) was 12.2 µg/mL. For the same molecule, the A77 1726 concentrations in serum, Mean ([1]; Non-Diseased Rats, 3 h) was 30.7 µg/mL, the A77 1726 concentrations in serum, Mean ([1]; Non-Diseased Rats, 7 h) was 47.9 µg/mL and the A77 1726 concentrations in serum, Mean ([1]; Non-Diseased Rats, 27 h) was 9.6 µg/mL. For the same molecule, the “A77 1726 concentrations in serum, Mean” value ([1]; Non-Diseased Rats, 51 h) was 7400 µg/mL, the A77 1726 concentrations in serum, Mean ([1]; Non-Diseased Rats, 99 h) was 12.7 µg/mL and the “A77 1726 serum concentration” value ([1]; adjuvant diseased rats) was “about 26 μg/ml”. The “time to reach the 7 to 12 μg/ml A77 1726 serum concentrations” value ([1]; diseased animals) was 51 h, the “time to reach the 7 to 12 μg/ml A77 1726 serum concentrations” value ([1]; non-diseased rats) was 27 h and the “A77 1726 serum concentration” value ([1]; non-diseased rats) was roughly 31 µg/mL. For the same molecule, the “time of peak A77 1726 serum concentration” value ([1]; one hour after the second dosing) was 7 h, the “DHO-Concentration (μg/ml ± SD) Experiment 1 (E10 B)” value (DHO-DH; 1 ×10^6 cells extracted) was 14.08 ± 2.40 µg/mL and the “DHO-Concentration (μg/ml ± SD) Experiment 2 (E14)” value (DHO-DH; 1 ×10^6 cells extracted) was 11.75 ± 0.23 µg/mL. For the same molecule, the “Concentration DHO (μg/ml) mean ± SD” value (DHO-DH; 1 × 10^6 cells/ml, 1 h, 5 μM A77 1726, extrapolated to 10×10^6 cells, n=2) was 6.25 ± 0.42 µg/mL, the “Concentration DHO (μg/ml) mean ± SD” value (DHO-DH; 1 × 10^6 cells/ml, 4 h, 5 μM A77 1726, extrapolated to 10×10^6 cells, n=2) was 33.06 ± 2.26 µg/mL and the “Concentration DHO (μg/ml) mean ± SD” value (DHO-DH; 1 × 10^6 cells/ml, 7 h, 5 μM A77 1726, extrapolated to 10×10^6 cells, n=2) was 60.07 ± 0.01 µg/mL. For the same molecule, the “incubation time after which detectable amounts of DHO could be determined” value (DHO-DH; 1×10^6 cells/ml, independent of the drug concentration) was 1 h, the “incubation time with the greatest amount of DHO determined” value (DHO-DH; 1×10^6 cells/ml, saturation afterwards) was 6 h and the “DHO-Concentration (μg/ml ± SD) Experiment 1 (E10 B)” value (DHO-DH; 2 ×10^6 cells extracted) was 19.51 ± 6.47 µg/mL. The “DHO-Concentration (μg/ml ± SD) Experiment 2 (E14)” value (DHO-DH; 2 ×10^6 cells extracted) was 28.27 ± 0.79 µg/mL, the “Concentration DHO (μg/ml) mean ± SD” value (DHO-DH; 2 × 10^6 cells/ml, 1 h, 5 μM A77 1726, extrapolated to 10×10^6 cells, n=2) was 5.47 ± 0.10 µg/mL and the “Concentration DHO (μg/ml) mean ± SD” value (DHO-DH; 2 × 10^6 cells/ml, 4 h, 5 μM A77 1726, extrapolated to 10×10^6 cells, n=2) was 26.36 ± 0.42 µg/mL. For the same molecule, the “Concentration DHO (μg/ml) mean ± SD” value (DHO-DH; 2 × 10^6 cells/ml, 7 h, 5 μM A77 1726, extrapolated to 10×10^6 cells, n=2) was 42.31 ± 1.07 µg/mL, the “Concentration DHO (μg/ml) mean ± SD” value (DHO-DH; 3 × 10^6 cells/ml, 1 h, 5 μM A77 1726, extrapolated to 10×10^6 cells, n=2) was 5.63 ± 0.19 µg/mL and the “Concentration DHO (μg/ml) mean ± SD” value (DHO-DH; 3 × 10^6 cells/ml, 4 h, 5 μM A77 1726, extrapolated to 10×10^6 cells, n=2) was 19.39 ± 1.87 µg/mL. The “Concentration DHO (μg/ml) mean ± SD” value (DHO-DH; 3 × 10^6 cells/ml, 7 h, 5 μM A77 1726, extrapolated to 10×10^6 cells, n=2) was 28.79 ± 0.34 µg/mL, the “DHO-Concentration (μg/ml ± SD) Experiment 1 (E10 B)” value (DHO-DH; 4 ×10^6 cells extracted) was 53.58 ± 3.50 µg/mL and the “DHO-Concentration (μg/ml ± SD) Experiment 2 (E14)” value (DHO-DH; 4 ×10^6 cells extracted) was 57.20 ± 2.76 µg/mL. For the same molecule, the “DHO-Concentration (μg/ml ± SD) Experiment 1 (E10 B)” value (DHO-DH; 6 ×10^6 cells extracted) was 73.01 ± 1.49 µg/mL, the “DHO-Concentration (μg/ml ± SD) Experiment 2 (E14)” value (DHO-DH; 6 ×10^6 cells extracted) was 85.38 ± 2.33 µg/mL and the “DHO-Concentration (μg/ml ± SD) Experiment 1 (E10 B)” value (DHO-DH; 8 ×10^6 cells extracted) was 99.89 ± 5.96 µg/mL. The “DHO-Concentration (μg/ml ± SD) Experiment 2 (E14)” value (DHO-DH; 8 ×10^6 cells extracted) was 107.02 ± 3.47 µg/mL, the “DHO-Concentration (μg/ml ± SD) Experiment 1 (E10 B)” value (DHO-DH; 10 ×10^6 cells extracted) was 113.37 ± 4.24 µg/mL and the “DHO-Concentration (μg/ml ± SD) Experiment 2 (E14)” value (DHO-DH; 10 ×10^6 cells extracted) was 128.73 ± 1.95 µg/mL. For the same molecule, the “Concentration DHO (μg/ml) mean ± SD” value (DHO-DH; A77 1726 5 μM, 0 h, one million cells/ml, extrapolated to ten million cells) was 2.73 ± 0.10 µg/mL, the “Concentration DHO (μg/ml) mean ± SD” value (DHO-DH; A77 1726 5 μM, 1 h, one million cells/ml, extrapolated to ten million cells) was 9.20 ± 0.09 µg/mL and the “Concentration DHO (μg/ml) mean ± SD” value (DHO-DH; A77 1726 5 μM, 2 h, one million cells/ml, extrapolated to ten million cells) was 24.03 ± 1.15 µg/mL. The “Concentration DHO (μg/ml) mean ± SD” value (DHO-DH; A77 1726 5 μM, 4 h, one million cells/ml, extrapolated to ten million cells) was 59.48 ± 0.72 µg/mL, the “Concentration DHO (μg/ml) mean ± SD” value (DHO-DH; A77 1726 5 μM, 7 h, one million cells/ml, extrapolated to ten million cells) was 87.54 ± 1.58 µg/mL and the “Concentration DHO (μg/ml) mean ± SD” value (DHO-DH; A77 1726 10 μM, 0 h, one million cells/ml, extrapolated to ten million cells) was 2.73 ± 0.10 µg/mL. For the same molecule, the “Concentration DHO (μg/ml) mean ± SD” value (DHO-DH; A77 1726 10 μM, 1 h, one million cells/ml, extrapolated to ten million cells) was 8.5 ± 0.39 µg/mL, the “Concentration DHO (μg/ml) mean ± SD” value (DHO-DH; A77 1726 10 μM, 2 h, one million cells/ml, extrapolated to ten million cells) was 20.74 ± 1.43 µg/mL and the “Concentration DHO (μg/ml) mean ± SD” value (DHO-DH; A77 1726 10 μM, 4 h, one million cells/ml, extrapolated to ten million cells) was 58.65 ± 2.06 µg/mL. For the same molecule, the “Concentration DHO (μg/ml) mean ± SD” value (DHO-DH; A77 1726 10 μM, 7 h, one million cells/ml, extrapolated to ten million cells) was 82.65 ± 4.50 µg/mL, the “Concentration DHO (μg/ml) mean ± SD” value (DHO-DH; A77 1726 25 μM, 0 h, one million cells/ml, extrapolated to ten million cells) was 2.73 ± 0.08 µg/mL and the “Concentration DHO (μg/ml) mean ± SD” value (DHO-DH; A77 1726 25 μM, 1 h, one million cells/ml, extrapolated to ten million cells) was 15.05 ± 0.26 µg/mL. For the same molecule, the “Concentration DHO (μg/ml) mean ± SD” value (DHO-DH; A77 1726 25 μM, 2 h, one million cells/ml, extrapolated to ten million cells) was 26.06 ± 0.20 µg/mL, the “Concentration DHO (μg/ml) mean ± SD” value (DHO-DH; A77 1726 25 μM, 4 h, one million cells/ml, extrapolated to ten million cells) was 50.21 ± 1.54 µg/mL and the “Concentration DHO (μg/ml) mean ± SD” value (DHO-DH; A77 1726 25 μM, 7 h, one million cells/ml, extrapolated to ten million cells) was 114.89 ± 3.61 µg/mL. For the same molecule, the “accumulation of L-DHO in A20.2.J tumor cells” value (DHO-DH; incubation with A77 1726) was “rapid accumulation of L-DHO”.
